According to patent publication US20140249135A1, “PIM KINASE INHIBITORS AND METHODS OF THEIR USE” (NOVARTIS AG, priority 2007, published 2014):
pIC50: −log10 of the molar value. Like-named read-outs stand apart in the source and are kept apart here.

Key:
[1] = target: T1, human full length PKCE enzyme (Homo sapiens, UniProt Q02156); experiment: In vitro PKCE assay; format: biochemical; settings: 10 nM enzyme, 40 uM peptide substrate, 20 uM ATP, KinaseGlo Plus readout; read-out: PKCε IC50
T1 construct: human full length PKCE enzyme purchased from InVitrogen; purchased InVitrogen
T1 sequence (Q02156 1-737): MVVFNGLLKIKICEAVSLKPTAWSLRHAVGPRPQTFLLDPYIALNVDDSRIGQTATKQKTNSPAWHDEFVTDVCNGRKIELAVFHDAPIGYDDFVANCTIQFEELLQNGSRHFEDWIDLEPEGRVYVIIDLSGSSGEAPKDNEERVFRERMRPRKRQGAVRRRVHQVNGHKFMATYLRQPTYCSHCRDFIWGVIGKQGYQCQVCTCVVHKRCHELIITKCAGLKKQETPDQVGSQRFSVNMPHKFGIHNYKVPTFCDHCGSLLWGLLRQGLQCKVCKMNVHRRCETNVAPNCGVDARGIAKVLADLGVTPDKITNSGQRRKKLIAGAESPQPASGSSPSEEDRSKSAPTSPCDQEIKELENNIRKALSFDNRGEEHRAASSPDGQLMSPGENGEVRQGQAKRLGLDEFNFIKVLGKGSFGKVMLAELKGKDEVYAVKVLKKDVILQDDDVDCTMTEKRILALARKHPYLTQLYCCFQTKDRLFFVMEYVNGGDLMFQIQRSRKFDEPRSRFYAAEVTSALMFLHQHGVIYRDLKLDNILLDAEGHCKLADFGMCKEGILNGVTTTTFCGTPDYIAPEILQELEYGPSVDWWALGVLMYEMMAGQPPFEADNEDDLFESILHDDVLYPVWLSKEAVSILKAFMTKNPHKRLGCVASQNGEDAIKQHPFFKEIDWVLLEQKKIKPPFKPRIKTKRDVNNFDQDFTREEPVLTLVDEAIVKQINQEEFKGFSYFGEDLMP

Pim1 kinase = Pim1 kinase (Homo sapiens, UniProt P11309); experiment: Pim1 ATP depletion assay; format: biochemical; settings: Pim1 ATP depletion assay; for IC50: read-out: IC50 (μM) PIM1;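 for all read-outs here: Luciferase-luciferin luminescence readout of residual ATP after PIM1 transfers phosphate to a peptide substrate, 40 µM ATP added, reaction run to roughly half ATP consumption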
Chain of Pim1 kinase (P11309 whole entry): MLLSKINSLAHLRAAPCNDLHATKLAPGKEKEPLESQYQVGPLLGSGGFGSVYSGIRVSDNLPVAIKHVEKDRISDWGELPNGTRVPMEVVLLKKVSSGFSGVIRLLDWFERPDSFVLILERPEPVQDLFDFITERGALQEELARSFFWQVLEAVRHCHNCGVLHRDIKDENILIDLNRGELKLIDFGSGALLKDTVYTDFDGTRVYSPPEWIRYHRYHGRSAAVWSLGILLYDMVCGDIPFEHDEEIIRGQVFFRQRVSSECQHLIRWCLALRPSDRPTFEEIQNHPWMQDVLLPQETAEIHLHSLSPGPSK

Pim3 kinase = Pim3 kinase (Homo sapiens, UniProt Q86V86); experiment: Pim3 ATP depletion assay; format: biochemical; settings: for IC50: read-out: IC50 (μM) PIM3
KDR kinase = KDR kinase (Homo sapiens, UniProt P35968); experiment: KDR AlphaScreen assay; settings: KDR IC50 (μM)
Chain of KDR kinase (P35968 20-1356): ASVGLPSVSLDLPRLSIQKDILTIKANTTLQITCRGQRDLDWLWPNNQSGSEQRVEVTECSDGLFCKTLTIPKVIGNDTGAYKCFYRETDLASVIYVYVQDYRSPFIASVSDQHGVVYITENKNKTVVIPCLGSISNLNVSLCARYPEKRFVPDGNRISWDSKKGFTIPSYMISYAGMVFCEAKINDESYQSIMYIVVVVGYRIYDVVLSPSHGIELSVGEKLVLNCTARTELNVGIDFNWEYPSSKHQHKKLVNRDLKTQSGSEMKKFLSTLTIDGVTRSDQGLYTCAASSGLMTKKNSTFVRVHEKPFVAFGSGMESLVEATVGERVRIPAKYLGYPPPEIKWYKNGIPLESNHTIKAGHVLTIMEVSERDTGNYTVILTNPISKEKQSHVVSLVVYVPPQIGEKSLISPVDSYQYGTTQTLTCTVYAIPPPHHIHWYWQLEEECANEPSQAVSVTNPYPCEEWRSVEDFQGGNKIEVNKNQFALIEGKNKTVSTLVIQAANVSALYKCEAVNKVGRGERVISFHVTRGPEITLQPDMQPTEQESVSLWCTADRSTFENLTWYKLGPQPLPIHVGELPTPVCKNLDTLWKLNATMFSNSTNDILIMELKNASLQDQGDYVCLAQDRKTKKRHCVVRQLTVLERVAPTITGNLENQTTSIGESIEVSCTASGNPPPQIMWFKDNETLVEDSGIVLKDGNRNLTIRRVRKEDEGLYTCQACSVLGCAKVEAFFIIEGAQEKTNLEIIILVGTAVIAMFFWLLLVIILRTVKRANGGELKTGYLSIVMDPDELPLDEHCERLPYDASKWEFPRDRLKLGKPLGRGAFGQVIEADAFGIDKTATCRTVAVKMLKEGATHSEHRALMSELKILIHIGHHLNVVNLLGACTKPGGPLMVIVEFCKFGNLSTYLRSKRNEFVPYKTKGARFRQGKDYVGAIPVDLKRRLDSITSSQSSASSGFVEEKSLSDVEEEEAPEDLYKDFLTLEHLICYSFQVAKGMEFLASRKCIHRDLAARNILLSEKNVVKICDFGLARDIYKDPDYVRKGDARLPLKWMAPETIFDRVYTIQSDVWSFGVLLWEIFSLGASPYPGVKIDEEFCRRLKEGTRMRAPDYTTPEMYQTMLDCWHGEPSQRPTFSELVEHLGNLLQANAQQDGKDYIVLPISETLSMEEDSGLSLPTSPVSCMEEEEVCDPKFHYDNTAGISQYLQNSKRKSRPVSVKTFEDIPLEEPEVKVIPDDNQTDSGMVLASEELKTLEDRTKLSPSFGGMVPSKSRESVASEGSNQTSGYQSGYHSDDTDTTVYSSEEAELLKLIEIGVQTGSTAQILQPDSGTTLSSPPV

Pim2 kinase = Pim2 kinase (Homo sapiens, UniProt Q9P1W9); experiment: Pim2 ATP depletion assay; format: biochemical; settings: for IC50: read-out: IC50 (μM) PIM2;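 for all read-outs here: Luciferase-based luminescent readout of ATP remaining after PIM2 phosphorylates a BAD peptide, final 5 nM enzyme, 4 µM ATP, 10 µM peptide, 2.5% DMSO, run to roughly half ATP consumption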
Chain of Pim2 kinase (Q9P1W9 whole entry): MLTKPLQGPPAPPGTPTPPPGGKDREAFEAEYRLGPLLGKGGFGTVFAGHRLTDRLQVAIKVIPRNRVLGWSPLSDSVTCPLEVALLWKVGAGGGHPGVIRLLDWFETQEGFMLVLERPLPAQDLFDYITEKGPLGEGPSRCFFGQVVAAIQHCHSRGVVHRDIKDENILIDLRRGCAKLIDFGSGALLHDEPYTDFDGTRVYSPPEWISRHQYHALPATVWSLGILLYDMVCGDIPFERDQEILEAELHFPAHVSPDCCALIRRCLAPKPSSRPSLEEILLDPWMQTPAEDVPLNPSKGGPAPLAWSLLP

| SMILES | pIC50 [1] | IC50 (Pim1 kinase) | IC50 (Pim3 kinase) | IC50 (KDR kinase) | IC50 (Pim2 kinase) | pIC50 (Pim1 kinase; read-out: PIM1 IC50) | pIC50 (Pim3 kinase; read-out: PIM3 IC50) | pIC50 (Pim2 kinase; read-out: PIM2 IC50) |
| --- | --- | --- | --- | --- | --- | --- | --- | --- |
| NCCC(=O)N1CCN(c2cnc(=O)[nH]c2NC(=O)c2nc(Cl)c(N)nc2N)CC1 [Example 238, 3,5-diamino-6-chloro-pyrazine-2-carboxylic acid {5-[4-(3-amino-propionyl)-piperazin-1-yl]-2-oxo-2,3-dihydro-pyrimidin-4-yl}-amide] | < 4.60 | < 1 µM | < 1 µM | < 1 µM | < 1 µM | – | – | – |
| Nc1ccc(-c2cnc(N)c(C(F)(F)F)c2)nc1C(=O)Nc1cnccc1N1CCC[C@H](N)C1 [Example 482, 5,6′-Diamino-5′-trifluoromethyl-[2,3′]bipyridinyl-6-carboxylic acid (3-amino-3,4,5,6-tetrahydro-2H-[1,4′]bipyridinyl-3′-yl)-amide] | < 4.60 | < 1 µM | < 1 µM | 10 to 25 µM | < 1 µM | – | – | – |
| Nc1nccnc1C(=O)Nc1cc(C(=O)c2ccccc2)ccc1N1CCCC(N)C1 (stereo not drawn) [Example 231, 3-amino-pyrazine-2-carboxylic acid [2-(3-amino-piperidin-1-yl)-5-benzoyl-phenyl]-amide] | 4.60 to 5.00 | 1 to 10 µM | 1 to 10 µM | 10 to 25 µM | > 25 µM | – | – | – |
| Cc1ccc(N2CCNCC2)c(NC(=O)c2nccnc2N)c1 [Example 216, 3-amino-N-(5-methyl-2-piperazin-1-ylphenyl)pyrazine-2-carboxamide] | 5.00 to 6.00 | 1 to 10 µM | 1 to 10 µM | > 25 µM | > 25 µM | – | – | – |
| Nc1nccnc1C(=O)Nc1cc(Cl)ccc1N1CCCC(N)C1 (stereo not drawn) [Example 215, 3-amino-N-[2-(3-aminopiperidin-1-yl)-5-chlorophenyl]pyrazine-2-carboxamide] | 5.00 to 6.00 | < 1 µM | < 1 µM | > 25 µM | 1 to 10 µM | – | – | – |
| Nc1ccc(-c2ccc(N)c(C(=O)Nc3cnccc3N3CCC[C@H](N)C3)n2)c(F)n1 [Example 484, 5,6′-Diamino-2′-fluoro-[2,3′]bi-pyridinyl-6-carboxylic acid (3-amino-3,4,5,6-tetrahydro-2H-[1,4′]bipyridinyl-3′-yl)-amide] | 4.60 to 5.00 | < 1 µM | < 1 µM | > 25 µM | < 1 µM | – | – | – |
| Nc1nccnc1C(=O)Nc1cc(C(=O)C2CC2)ccc1N1CCC(N)CC1 [Example 244, 3-amino-pyrazine-2-carboxylic acid [2-(4-amino-piperidin-1-yl)-5-cyclopropanecarbonyl-phenyl]-amide] | 5.00 to 6.00 | 1 to 10 µM | 1 to 10 µM | 10 to 25 µM | 10 to 25 µM | – | – | – |
| Nc1ccc(-c2cccnc2F)nc1C(=O)Nc1ccncc1N1CCCC(N)C1 (stereo not drawn) [Example 552, 5-Amino-2′-fluoro-[2,3′]bi-pyridinyl-6-carboxylic acid (3-amino-3,4,5,6-tetrahydro-2H-[1,3′]bipyridinyl-4′-yl)-amide] | 5.00 to 6.00 | – | – | 1 to 10 µM | – | > 6.00 | > 6.00 | > 6.00 |
| Nc1nc(N)c(C(=O)Nc2cnccc2N2CCCCC2)nc1Cl [Example 121, 3,5-diamino-6-chloro-N-(4-piperidin-1-ylpyridin-3-yl)-pyrazine-2-carboxamide] | < 4.60 | < 1 µM | < 1 µM | < 1 µM | < 1 µM | – | – | – |
| Nc1ncc(-c2ccccc2F)nc1C(=O)Nc1cc(C(=O)c2ccccc2)ccc1N1CCC(N)CC1 [Example 439, 3-amino-6-(2-fluoro-phenyl)-pyrazine-2-carboxylic acid [2-(4-amino-piperidin-1-yl)-5-benzoyl-phenyl]-amide] | 5.00 to 6.00 | 1 to 10 µM | 1 to 10 µM | 1 to 10 µM | > 25 µM | – | – | – |
| Nc1cc(C(F)(F)F)c(-c2ccc(N)c(C(=O)Nc3cnccc3N3CCC[C@H](N)C3)n2)cn1 [Example 483, 5,6′-Diamino-4′-trifluoromethyl-[2,3′]bipyridinyl-6-carboxylic acid (3-amino-3,4,5,6-tetrahydro-2H-[1,4′]bipyridinyl-3′-yl)-amide] | 4.60 to 5.00 | < 1 µM | < 1 µM | > 25 µM | < 1 µM | – | – | – |

Other lines, results leading:

| pIC50 [1] | IC50 (Pim1 kinase) | IC50 (Pim3 kinase) | IC50 (KDR kinase) | IC50 (Pim2 kinase) | pIC50 (Pim1 kinase; read-out: PIM1 IC50) | pIC50 (Pim3 kinase; read-out: PIM3 IC50) | pIC50 (Pim2 kinase; read-out: PIM2 IC50) | SMILES |
| --- | --- | --- | --- | --- | --- | --- | --- | --- |
| 5.00 to 6.00 | < 1 µM | < 1 µM | > 25 µM | 10 to 25 µM | – | – | – | CC(=O)c1ccc(N2CCNCC2)c(NC(=O)c2nccnc2N)c1 [Example 219, N-(5-acetyl-2-piperazin-1-yl-phenyl)-3-aminopyrazine-2-carboxamide] |
| > 6.00 | < 1 µM | < 1 µM | 1 to 10 µM | < 1 µM | – | – | – | Nc1ncc(Br)nc1C(=O)Nc1cnccc1N1CCCCC1 [Example 119, 3-amino-6-bromo-N-(4-piperidin-1-ylpyridin-3-yl)pyrazine-2-carboxamide] |
| > 6.00 | < 1 µM | < 1 µM | 1 to 10 µM | 1 to 10 µM | – | – | – | Nc1ncc(-c2ccoc2)nc1C(=O)Nc1ccccc1N1CCC(N)CC1 [Example 379, 3-amino-6-furan-3-yl-pyrazine-2-carboxylic acid [2-(4-amino-piperidin-1-yl)-phenyl]-amide] |
| > 6.00 | < 1 µM | < 1 µM | 10 to 25 µM | < 1 µM | – | – | – | COc1ccc(N2CCCC(N)C2)c(NC(=O)c2nc(Br)cnc2N)c1 (stereo not drawn) [Example 212, 3-amino-N-[2-(3-aminopiperidin-1-yl)-5-methoxyphenyl]-6-bromopyrazine-2-carboxamide] |
| > 6.00 | < 1 µM | < 1 µM | 1 to 10 µM | 1 to 10 µM | – | – | – | Nc1ncc(Br)nc1C(=O)Nc1ccccc1N1CCNCC1 [Example 206, 3-amino-6-bromo-N-(2-piperazin-1-ylphenyl)pyrazine-2-carboxamide] |
| > 6.00 | < 1 µM | < 1 µM | < 1 µM | 1 to 10 µM | – | – | – | Cc1cccc(-c2cnc(N)c(C(=O)Nc3ccccc3N3CCNCC3)n2)c1 [Example 388, 3-amino-6-m-tolyl-pyrazine-2-carboxylic acid (2-piper-azin-1-yl-phenyl)-amide] |
| > 6.00 | < 1 µM | < 1 µM | > 25 µM | 1 to 10 µM | – | – | – | COc1ccc(N2CCCC(N)C2)c(NC(=O)c2nccnc2N)c1 (stereo not drawn) [Example 223, 3-amino-N-[2-(3-aminopiperidin-1-yl)-5-methoxyphenyl]pyrazine-2-carboxamide] |
| > 6.00 | < 1 µM | < 1 µM | 1 to 10 µM | < 1 µM | – | – | – | Nc1ncc(Br)nc1C(=O)Nc1ccccc1N1CCCC(N)C1 (stereo not drawn) [Example 204, 3-amino-N-[2-(3-aminopiperidin-1-yl)phenyl]-6-bromopyrazine-2-carboxamide] |
| > 6.00 | < 1 µM | < 1 µM | 1 to 10 µM | < 1 µM | – | – | – | COc1ccc(N2CCC(N)CC2)c(NC(=O)c2nc(Br)cnc2N)c1 [Example 211, 3-amino-N-[2-(4-aminopiperidin-1-yl)-5-methoxyphenyl]-6-bromopyrazine-2-carboxamide] |
| > 6.00 | < 1 µM | < 1 µM | 1 to 10 µM | < 1 µM | – | – | – | Nc1ncc(-c2ccccc2F)nc1C(=O)Nc1ccccc1N1CCC(N)CC1 [Example 377, 3-amino-6-(2-fluoro-phenyl)-pyrazine-2-carboxylic acid [2-(4-amino-piperidin-1-yl)-phenyl]-amide] |
